Results as given in PubChem BioAssay AID248 (DTP/NCI, 2004).
Toxic doses and inconclusive results are not listed. No stated cut-off is given here; in the data, active means T/C of 150% or more; inactive means T/C below 125%.

System: L1210 leukemia ip in BDF1 mice, survival T/C
Assay: NCI In Vivo Anticancer Drug Screen. Data for tumor model L1210 Leukemia (intraperitoneal) in B6D2F1 (BDF1) mice
Conditions: endpoint: mean survival time, higher = longer survival
Procedure, shortened: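 In this screen, tumor-bearing mice given compound are compared to those given vehicle, and their survival values are reported as a treated-to-control quotient.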

[1] = dose: 100.0 mg/kg/injection, schedule: Q01DX001 (ip), vehicle: saline
[2] = dose: 200.0 mg/kg/injection, schedule: Q01DX001 (ip), vehicle: saline
[3] = dose: 100.0 mg/kg/injection, schedule: Q04DX003 (ip), vehicle: Klucel (hydroxypropylcellulose) (HPC)
[4] = dose: 200.0 mg/kg/injection, schedule: Q04DX003 (ip), vehicle: Klucel (hydroxypropylcellulose) (HPC)
[5] = dose: 400.0 mg/kg/injection, schedule: Q04DX003 (ip), vehicle: Klucel (hydroxypropylcellulose) (HPC)
[6] = dose: 100.0 mg/kg/injection, schedule: Q01DX009 (ip), vehicle: Klucel (hydroxypropylcellulose) (HPC)
[7] = dose: 100.0 mg/kg/injection, schedule: Q01DX009 (ip), vehicle: saline
[8] = dose: 100.0 mg/kg/injection, schedule: Q01DX001 (ip), vehicle: carboxymethylcellulose (CMC)
[9] = dose: 200.0 mg/kg/injection, schedule: Q01DX001 (ip), vehicle: carboxymethylcellulose (CMC)
[10] = dose: 400.0 mg/kg/injection, schedule: Q01DX001 (ip), vehicle: carboxymethylcellulose (CMC)

Measured: T/C

Cc1ccc(S(=O)(=O)Nc2ccc(-c3ccc(NS(=O)(=O)c4ccc(C)cc4)cc3)cc2)cc1
inactive: dose: 50.0 mg/kg/injection, schedule: Q04DX002 (ip), vehicle: saline with Tween-80 89 % of control | dose: 100.0 mg/kg/injection, schedule: Q04DX002 (ip), vehicle: saline with Tween-80 95 % of control

O=C(Nc1ccc(CC2=NCCN2)cc1)c1ccc(C(=O)Nc2ccc(CC3=NCCN3)cc2)cc1
inactive: dose: 0.5 mg/kg/injection, schedule: Q01DX Z (ip), vehicle: saline 102 % of control | dose: 1.0 mg/kg/injection, schedule: Q01DX Z (ip), vehicle: saline 104 % of control | dose: 2.0 mg/kg/injection, schedule: Q01DX Z (ip), vehicle: saline 91 % of control | dose: 4.0 mg/kg/injection, schedule: Q01DX Z (ip), vehicle: saline 104 % of control | dose: 8.0 mg/kg/injection, schedule: Q01DX Z (ip), vehicle: saline 104 % of control

C=C1C(=O)OC2/C=C(\C)CC/C=C(\C)CC(OC(C)=O)C12 (centres undefined)
inactive: dose: 50.0 mg/kg/injection, schedule: Q01DX001 (ip), vehicle: saline 96 % of control | [1] 96 % of control | [2] 107 % of control

Cc1ccc(N2CCN(C(C)(C)C#N)CC2)cc1
inactive: [1] 102 % of control | [2] 98 % of control

CCCCCCCCCC/C=C/c1c(C)[nH]c2ccccc2c1=O
inactive: dose: 100.0 mg/kg/injection, schedule: Q01DX009 (ip), vehicle: alcohol 98 % of control | dose: 100.0 mg/kg/injection, schedule: Q04DX003 (ip), vehicle: alcohol 93 % of control | dose: 200.0 mg/kg/injection, schedule: Q04DX003 (ip), vehicle: alcohol 100 % of control | dose: 400.0 mg/kg/injection, schedule: Q04DX003 (ip), vehicle: alcohol 88 % of control

O=C(O)c1cccc(NC(=O)C(F)(F)F)c1
inactive: dose: 100.0 mg/kg/injection, schedule: Q01DX001 (ip), vehicle: Klucel (hydroxypropylcellulose) (HPC) 94 % of control | [3] 102 % of control | dose: 200.0 mg/kg/injection, schedule: Q01DX001 (ip), vehicle: Klucel (hydroxypropylcellulose) (HPC) 96 % of control | [4] 108 % of control | dose: 400.0 mg/kg/injection, schedule: Q01DX001 (ip), vehicle: Klucel (hydroxypropylcellulose) (HPC) 100 % of control | [5] 103 % of control

CN1C2CC(=O)CC1C(O)C2 (centres undefined)
inactive: [1] 103 % of control | dose: 400.0 mg/kg/injection, schedule: Q01DX001 (ip), vehicle: saline 90 % of control

CCCCCCCCC[n+]1cccc(C(=O)c2ccccc2)c1
inactive: dose: 9.38 mg/kg/injection, schedule: Q01DX001 (ip), vehicle: saline 98 % of control | dose: 18.75 mg/kg/injection, schedule: Q01DX001 (ip), vehicle: saline 100 % of control | dose: 37.5 mg/kg/injection, schedule: Q01DX001 (ip), vehicle: saline 105 % of control

CN=C(Nc1ccccc1C)SC
inactive: dose: 50.0 mg/kg/injection, schedule: Q04DX003 (ip), vehicle: saline 100 % of control | [1] 98 % of control | dose: 100.0 mg/kg/injection, schedule: Q04DX003 (ip), vehicle: saline 100 % of control | [2] 102 % of control | dose: 200.0 mg/kg/injection, schedule: Q04DX003 (ip), vehicle: saline 106 % of control

CC(=O)Nc1cc2c(cc1[N+](=O)[O-])-c1ccc([N+](=O)[O-])cc1C2
inactive: [6] 95 % of control | [3] 93 % of control | dose: 200.0 mg/kg/injection, schedule: Q01DX009 (ip), vehicle: Klucel (hydroxypropylcellulose) (HPC) 89 % of control | [4] 91 % of control | dose: 400.0 mg/kg/injection, schedule: Q01DX009 (ip), vehicle: Klucel (hydroxypropylcellulose) (HPC) 94 % of control | [5] 94 % of control

CCCCCCCCCCCCNC=O
inactive: [7] 94 % of control

CCOC(=O)NC(=S)n1ncnc1N
inactive: dose: 6.25 mg/kg/injection, schedule: Q01DX009 (ip), vehicle: saline with Tween-80 105 % of control | dose: 12.5 mg/kg/injection, schedule: Q01DX009 (ip), vehicle: saline with Tween-80 97 % of control | dose: 25.0 mg/kg/injection, schedule: Q01DX009 (ip), vehicle: saline with Tween-80 100 % of control | dose: 35.0 mg/kg/injection, schedule: Q01DX009 (ip), vehicle: saline with Tween-80 86 % of control

Cc1c(C)c(C)c(CN2CC(=O)c3ccccc3C2=O)c(C)c1C
inactive: dose: 100.0 mg/kg/injection, schedule: Q04DX002 (ip), vehicle: Klucel (hydroxypropylcellulose) (HPC) 89 % of control | dose: 200.0 mg/kg/injection, schedule: Q04DX002 (ip), vehicle: Klucel (hydroxypropylcellulose) (HPC) 104 % of control | dose: 400.0 mg/kg/injection, schedule: Q04DX002 (ip), vehicle: Klucel (hydroxypropylcellulose) (HPC) 89 % of control

CCOC(=O)CN1CC(C)(C)N(CC(=O)OCC)CC1(C)C
inactive: [8] 93 % of control | [9] 93 % of control | [10] 104 % of control

Cc1c(CCO)sc[n+]1Cc1ccccc1
inactive: dose: 100.0 mg/kg/injection, schedule: Q04DX002 (ip), vehicle: saline 93 % of control | dose: 200.0 mg/kg/injection, schedule: Q04DX002 (ip), vehicle: saline 100 % of control

Oc1ccc(N=Cc2c(O)ccc3ccccc23)cc1
inactive: dose: 200.0 mg/kg/injection, schedule: Q01DX001 (ip), vehicle: other 90 % of control | dose: 400.0 mg/kg/injection, schedule: Q01DX001 (ip), vehicle: other 91 % of control

COc1ccc(/C=N/NC(=O)CNC(=O)Nc2cccc(Cl)c2)cc1
inactive: dose: 50.0 mg/kg/injection, schedule: Q01DX009 (ip), vehicle: saline with Tween-80 87 % of control

CC1(C)N=C(N)N=C(N)N1c1ccc(OCCCCOc2ccc(S(=O)(=O)F)cc2)cc1
inactive: dose: 75.0 mg/kg/injection, schedule: Q01DX001 (ip), vehicle: Klucel (hydroxypropylcellulose) (HPC) 106 % of control | dose: 150.0 mg/kg/injection, schedule: Q01DX001 (ip), vehicle: Klucel (hydroxypropylcellulose) (HPC) 91 % of control | dose: 300.0 mg/kg/injection, schedule: Q01DX001 (ip), vehicle: Klucel (hydroxypropylcellulose) (HPC) 96 % of control

CCCCCCCCC(CCCCCCCC)CC1CC2CC1C1CCCC21 (centres undefined)
inactive: dose: 75.0 mg/kg/injection, schedule: Q01DX001 (ip), vehicle: saline with Tween-80 92 % of control | dose: 150.0 mg/kg/injection, schedule: Q01DX001 (ip), vehicle: saline with Tween-80 98 % of control | dose: 300.0 mg/kg/injection, schedule: Q01DX001 (ip), vehicle: saline with Tween-80 95 % of control

O=c1[nH]cc(/C=N/O)c(=O)[nH]1
inactive: [8] 106 % of control | [9] 106 % of control | [10] 101 % of control

CC(=O)OC1CCC2(C)C(CCC3C4CC=C(C(C)=O)C4(C)CCC32)C1 (centres undefined)
inactive: dose: 100.0 mg/kg/injection, schedule: Q01DX009 (sc), vehicle: steriod suspending solution 94 % of control | dose: 100.0 mg/kg/injection, schedule: Q04DX003 (sc), vehicle: steriod suspending solution 115 % of control | dose: 200.0 mg/kg/injection, schedule: Q01DX009 (sc), vehicle: steriod suspending solution 109 % of control | dose: 200.0 mg/kg/injection, schedule: Q04DX003 (sc), vehicle: steriod suspending solution 103 % of control | dose: 400.0 mg/kg/injection, schedule: Q01DX009 (sc), vehicle: steriod suspending solution 98 % of control | dose: 400.0 mg/kg/injection, schedule: Q04DX003 (sc), vehicle: steriod suspending solution 105 % of control

COc1ccc(C(=O)NC2CCC2)cc1
inactive: dose: 25.0 mg/kg/injection, schedule: Q01DX009 (ip), vehicle: saline 100 % of control | dose: 50.0 mg/kg/injection, schedule: Q01DX009 (ip), vehicle: saline 108 % of control | [7] 100 % of control

c1ccc(-n2nc3c(c2OCCN2CCCC2)CCCc2ccccc2-3)cc1
inactive: dose: 100.0 mg/kg/injection, schedule: Q01DX009 (ip), vehicle: saline with Tween-80 104 % of control

OCCOc1ccc(OCCO)cc1
inactive: dose: 100.0 mg/kg/injection, schedule: Q04DX003 (ip), vehicle: saline with Tween-80 94 % of control | dose: 200.0 mg/kg/injection, schedule: Q04DX003 (ip), vehicle: saline with Tween-80 97 % of control | dose: 400.0 mg/kg/injection, schedule: Q04DX003 (ip), vehicle: saline with Tween-80 99 % of control

O=c1oc2c3ccccc3c3ccccc3c2o1
inactive: dose: 25.0 mg/kg/injection, schedule: Q01DX009 (ip), vehicle: Klucel (hydroxypropylcellulose) (HPC) 113 % of control | dose: 50.0 mg/kg/injection, schedule: Q01DX009 (ip), vehicle: Klucel (hydroxypropylcellulose) (HPC) 103 % of control | [6] 94 % of control
